Here are results for two compounds from patent US20140023611A1 (priority 2010, published 2014).

What is called AUC is concentration integrated over time. A low value points to low exposure. A word on the Cmax: it is the highest concentration seen after dosing.

One series concerns the target T1, rat NaP2b (SLC34A2) (Rattus norvegicus, UniProt Q9JJ09).
T1 construct: host or cells: HEK293
T1 sequence (Q9JJ09 1-695): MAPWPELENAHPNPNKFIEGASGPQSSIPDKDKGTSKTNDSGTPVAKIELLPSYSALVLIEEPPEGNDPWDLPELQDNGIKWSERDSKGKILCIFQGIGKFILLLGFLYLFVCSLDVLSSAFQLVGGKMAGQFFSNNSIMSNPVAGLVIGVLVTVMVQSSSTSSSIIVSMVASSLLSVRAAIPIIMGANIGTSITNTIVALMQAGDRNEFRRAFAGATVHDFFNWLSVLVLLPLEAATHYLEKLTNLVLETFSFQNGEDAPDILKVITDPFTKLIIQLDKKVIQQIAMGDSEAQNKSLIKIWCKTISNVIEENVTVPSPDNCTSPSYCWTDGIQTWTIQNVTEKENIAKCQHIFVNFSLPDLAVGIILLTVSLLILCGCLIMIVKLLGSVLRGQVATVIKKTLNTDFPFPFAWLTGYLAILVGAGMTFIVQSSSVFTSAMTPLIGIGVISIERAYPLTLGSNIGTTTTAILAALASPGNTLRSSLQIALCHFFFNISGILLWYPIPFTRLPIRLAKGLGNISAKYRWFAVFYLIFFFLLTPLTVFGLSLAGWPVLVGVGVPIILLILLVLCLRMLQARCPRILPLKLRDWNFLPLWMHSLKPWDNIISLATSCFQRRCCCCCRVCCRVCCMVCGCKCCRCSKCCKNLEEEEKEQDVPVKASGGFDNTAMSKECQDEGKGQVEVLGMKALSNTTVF
Briefly: Inhibition of NaP2b-mediated Pi (33P) uptake in transfected HEK293 cells, rat NaP2b. The class given is cell-based. As to conditions: 33P Pi uptake, 0.1 mM phosphate, value given as pIC50 range. Put shortly: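 HEK293 cells were transiently transfected with NaP2b cDNA using Lipofectamine and grown near confluence. Compounds were tested at twelve concentrations from 0.1 nM to 30 uM in duplicate, and 33P-phosphate uptake was counted by scintillation after lysis. Results are expressed as pIC50.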

Another series has as its target T2, human NaP2b (SLC34A2) (Homo sapiens, UniProt O95436).
T2 construct: host or cells: HEK293
T2 sequence (O95436 1-690): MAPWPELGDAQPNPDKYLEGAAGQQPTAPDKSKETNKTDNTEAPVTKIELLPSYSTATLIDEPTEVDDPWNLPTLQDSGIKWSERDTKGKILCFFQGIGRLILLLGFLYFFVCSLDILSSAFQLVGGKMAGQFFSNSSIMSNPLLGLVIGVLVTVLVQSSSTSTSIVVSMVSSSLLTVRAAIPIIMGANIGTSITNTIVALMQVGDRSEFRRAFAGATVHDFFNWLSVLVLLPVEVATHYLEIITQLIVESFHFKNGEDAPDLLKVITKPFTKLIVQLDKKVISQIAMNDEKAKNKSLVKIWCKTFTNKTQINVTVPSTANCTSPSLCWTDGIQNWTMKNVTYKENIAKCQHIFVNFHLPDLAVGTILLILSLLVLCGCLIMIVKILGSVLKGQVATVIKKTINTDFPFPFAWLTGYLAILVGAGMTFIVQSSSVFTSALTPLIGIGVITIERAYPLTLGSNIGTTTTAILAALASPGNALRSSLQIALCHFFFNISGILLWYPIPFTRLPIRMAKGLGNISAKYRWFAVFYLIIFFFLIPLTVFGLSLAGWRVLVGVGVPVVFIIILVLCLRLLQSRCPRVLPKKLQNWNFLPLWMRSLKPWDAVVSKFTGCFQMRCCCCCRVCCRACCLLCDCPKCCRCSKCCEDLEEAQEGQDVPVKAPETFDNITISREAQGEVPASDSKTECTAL
Briefly: Inhibition of NaP2b-mediated Pi (33P) uptake in transfected HEK293 cells, human NaP2b. The class given is cell-based. The conditions noted are these: read-out: pIC50 range for human NaP2b (converted). Put shortly:
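HEK293 cells transiently transfected with human NaP2b (Thr inserted after residue 37, N39D), endogenous PiT transport pharmacologically silenced. Sodium or choline buffer, pH 7.4, with 100 uM KH2PO4, 33P orthophosphate and compound (0.1 nM–30 uM, twelve concentrations, duplicate). 3-30 min at room temperature, scintillation counting, pIC50 derived.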

The test system of the next series is NaPi2b. Briefly: Competition with phosphate: Pi uptake assay repeated at 2.1 vs 0.1 mM phosphate. The class given is cell-based. As to conditions: potency at 2.1 vs 0.1 mM phosphate. The source says:
For example, a phosphate uptake assay can be performed and the IC50 values for a compound at different phosphate concentrations can be determined (e.g., “Enzyme kinetics”, I. Segel, 1975, John-Wiley & Sons, p. 123). IC50 values for non-competitive inhibitors will remain the same or similar with respect to the phosphate concentration, whereas IC50 values for competitive inhibitors will increase (i.e lose potency) as phosphate concentration increases.
To ascertain if an inhibitor was competitive for binding with phosphate, the procedure was repeated, but raising the concentration of the substrate in the assay mixture from 0.1 to 2.1 mM phosphate.

Series [1] can be described thus: Determination of compound Cmax and AUC after oral gavage (plasma LC-MS/MS). As to conditions: Sprague-Dawley, Structure (I) examples, Table 15, rat, actual oral dose 3-15 mg/kg, plasma 0.5-4 h. The class given is in vivo, Sprague-Dawley rats. Put shortly: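 Sprague-Dawley rats dosed by oral gavage at nominal 2.5 or 10 mg/kg; blood drawn at 0.5, 1, 2 and 4 h into K2EDTA. Plasma protein-precipitated with acetonitrile plus internal standard and analysed by LC-MS/MS against a plasma standard curve to derive Cmax and AUC.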

Series [2] in a line: Fecal recovery of orally administered compounds. The class given is in vivo, Sprague-Dawley rats. As to conditions: Structure (I) examples, Table 16; rat, oral gavage, feces collected until 48 hr after dosing.
Excerpt: The animals were kept in metabolic cages and feces were collected from the time of dosing until 48 hr after dosing. Upon collection, feces were dried by lyophilization and ground to a visually homogenous powder. Duplicate samples of ground feces from each individual animal were weighed out and extracted using organic solvent. […] Extraction conditions were not optimized for individual compounds, and thus may represent a minimal level of recovery.
(§1) The animals were kept in metabolic cages and feces were collected from the time of dosing until 48 hr after dosing. Upon collection, feces was dried by lyophilization and ground to a visually homogenous powder. Duplicate samples of ground feces from each individual animal were weighed out and extracted using organic solvent. […] Extraction conditions were not optimized for individual compounds, and thus may represent a minimal level of recovery.
as §1
The animals were kept in metabolic cages and feces were collected from the time of dosing until 48 hr after dosing. Upon collection, feces was dried by lyophilization and ground to a visually homogenous powder. Duplicate samples of ground feces from each individual animal were weighed out and extracted using organic solvent.

The subject of series [3] is Uptake of Phosphorus from the Intestine. Briefly: In vivo co-dosing in chow (urine P out / P consumed). The conditions noted are these: Rattus norvegicus, feed or water; rats, compound in chow; mean drug dose 101 mg/kg/day; read-out: Mean % inhibition Urine Pout/P consumed. An excerpt:
Male, 7-week-old Sprague-Dawley rats (Charles-River laboratories international, Hollister, Calif.) were allowed to acclimate for a minimum of 3 days. The experiment was initiated by switching animals to a synthetic diet (0.6% phosphorus and 0.6% calcium, Harlan Teklad TD.84122) for four days. After this time, the animals were placed into metabolic cages for daily monitoring of food and water consumption, as well as urine and fecal collections. Test compounds were incorporated into the powdered diet listed above containing 3% chocolate flavoring (w/w, BioServ #7345) at 1.3 mg test compound per gram of diet to achieve an average daily nominal dose of 100 mg/kg/day. The actual dose received by each animal was later determined by measuring prepared diet consumption and body weight. Urine samples were collected in three daily periods from 24-48, 48-72, and 72-96 hours of drug dosing. Averaging these three 24 h periods allows for the more representative measurements of urination, fecal excretion, food consumption and water uptake for each animal. Phosphorus levels in the urine were determined by anion exchange chromatography using a Dionex ICS-3000 ion chromatography system. Urine samples were diluted 1:500 or 1:1000 and injected onto an IonPac AS18 analytical column (2×250 mm) using a potassium hydroxide eluent. Elution of urine phosphate ions was monitored via conductivity detector and reported as ppm relative to a standard ion solution containing phosphate. Daily urinary P output relative to the P consumed in the prepared diet for each animal was calculated. The percentage inhibition of phosphorus absorption was estimated by determining the reduction of this ratio compared to the control group (animals with no drug in chow). The differences between the means of control and treated groups were evaluated by t tests. In all experiments, one group was always included that had Renvela powder blended into their chow at 0.9% targeting a dose of 750 mg/kg.

Series [4] can be described thus: Stability of compounds in simulated gastric fluid (SGF). The class given is in vitro ADME. As to conditions: simulated gastric fluid (3 mg/mL pepsin), incubation time 6 hr, relative to t=0. In a few lines:
(§2)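 Compounds at […] were incubated 3 or 6 hr in USP simulated gastric fluid with 3 mg/mL pepsin or simulated intestinal fluid with 3 mg/mL pancreatin. Remaining compound was quantified by HPLC-UV or HPLC-MS peak area % and reported as percent of the t=0 level in the same medium.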

Series [5] can be described thus: Stability of compounds in simulated intestinal fluid (SIF). The class given is in vitro ADME. The conditions noted are these: simulated intestinal fluid (3 mg/mL pancreatin), incubation time 6 hr, relative to t=0. Put shortly: as §2

Take `O=C(O)CCOCCOCCOCCNC(=O)c1cccc(SCc2cccc(C(=O)Nc3ccc(N4CCCCC4)cc3-c3cc(C(=O)NCc4cccc(C(F)(F)F)c4)ccn3)c2)c1` [Example 10.1, 1-oxo-1-(3-(3-(4-(piperidin-1-yl)-2-(4-(3-(trifluoromethyl)benzyl-carbamoyl)pyridin-2-yl)phenylcarbamoyl)benzylthio)phenyl)-5,8,11-trioxa-2-azatetradecan-14-oic acid]: the IC50 on rat NaP2b (SLC34A2) is 1 to 7.94 µM; on human NaP2b (SLC34A2) it was under 1 µM. Besides, the “Competitive with respect to Pi?” value in the series on NaPi2b was “No”.

In series [1], `CN(CCN1CCOCC1)C(=O)c1cccc(C(=O)Nc2ccc(N3CCCCC3)cc2-c2cc(C(=O)N[C@H]3CCCc4ccccc43)ccn2)c1.Cl` [Example 37, (S)—N1-Methyl-N1-(2-morpholinoethyl)-N3-(4-(piperidin-1-yl)-2-(4-((1,2,3,4-tetrahydronaphthalen-1-yl)carbamoyl)pyridin-2-yl)phenyl)isophthalamide] returned an AUC of under 30 ng·h/mL and a Cmax of under 10 ng/mL. The “% recovered in feces” value in series [2] was under 20%. In addition, in series [3], the inhibition in vivo at 101 mg/kg/day is at most 10%. For the same compound, the “% remaining, SGF” value in series [4] is recorded as over 80%. In addition, the “% remaining, SIF” value in series [5] is listed as over 80%. The “Competitive with respect to Pi?” value with NaPi2b is “No”.
